PMC8800018, “Discovery of novel selective PI3Kγ inhibitors through combining machine learning-based virtual screening with multiple protein structures and bio-evaluation” (Journal of Advanced Research, 2021)
Read-outs that look alike come from different tables or passages of the source.

How the values were obtained:
PI3Kγ = PI3Kγ (Homo sapiens, UniProt P48736); assay: ADP-Glo cell-free PI3K kinase activity assay; conditions: compounds 10 μM, initial screening, Fig. 3A
Experimental: (§6) The PI3K inhibitory activities of these pro-hits were all determined by ADP-Glo assay (Promega) [39]. […] 2.5 μL ATP/substrate mixture was added into the wells to initiate kinase reactions and incubated at room temperature for 1 h. Then, the reactions were stopped by addition of 5 μL ADP-Glo reagent and incubation for 120 min at room temperature. Before reading the luminescence signals of each well, 10 μL kinase detection buffer was added and incubated for 30 min at room temperature.

PI3Kδ = PI3Kδ (Homo sapiens, UniProt O00329); assay: ADP-Glo cell-free PI3K kinase activity assay
Experimental: as §6

[1] = test system: PARP and caspase-3 cleavage in K562 cells; assay: Western Blot of apoptosis biomarkers; type: cell-based, human
Experimental: (§1) K562 and RPMI-8226 cells were cultured in 6-well plates with 1 × 10^6 cells per well and then treated with various concentrations of JN-KI3: 0, 2.5, 5, 10, and 20 μM. After 24 h, the cells of each well were collected and washed by PBS 3 times. The sedimentary cells were then incubated in an ice bath with 80 μL RIPA lysis buffer (Beyotime) for 20 min and then centrifuged at 12,000 rpm for 20 min. The supernatant was collected and its total concentration of protein was quantified using the BCA protein assay kit (Biosharp). Loading buffer (5 ×) was added to all protein samples prepared for Western Blot assays and boiled at 100℃ for 5 min.
(§2) The inhibitory situation of PI3K/AKT (Protein kinase B) signaling pathway was then determined by Western Blot assays. The SDS-polyacrylamide gel electrophoresis (PAGE) was used to separate the proteins. All protein samples and Protein Marker (Proteintech) were loaded onto an acrylamide gel and ran for 30 min at 80 V within the staking gel and for 1 h at 100 V with the separating gel. Then, the protein was electro-transferred onto an NC membrane at 100 V for 1 h. After that, the membrane was blocked in 5% skim milk diluted in TBST (1 ×) for 2 h and then the membrane was incubated with relevant primary antibody overnight at 4℃: Phospho-AKT (Thr308) (1 : 1000, cat# 13038 T; Cell Signaling Technology), Phospho-AKT (Ser473) (1: 1000, cat# 4060 T; Cell Signaling Technology), AKT (pan) (1: 1000, cat# 4691 T; Cell Signaling Technology), caspase-3 (1: 1000, cat# sc-56053; Santa Cruz Biotechnology), PARP (1: 1000, cat# 9542S; Cell Signaling Technology). GAPDH (1: 5000, cat#60004–1-Ig; Santa Cruz Biotechnology), After 10-min washing in TBST (1 ×) for 3 times, the membrane was incubated with relevant secondary antibody at room temperature on a shaker for 1 h. And the membrane was washed for 4 times in TBST again before being imaged.

[2] = test system: PARP and caspase-3 cleavage in RPMI-8226 cells; assay: Western Blot of apoptosis biomarkers; type: cell-based, human
Experimental: as §1, §2

K562 cells [3] = assay: MTT cell proliferation assay; type: cell-based, human
Text: (§3) The human cancer lines, MDA-MB-231, Patu8988, HepG2, A2780, LOVO, H1299, A549, HCT-8, SW480, 3AO, and MGC-803 were saved by the lab of Dr. Jian Jin, Jiangnan University. MCF-7 was purchased from the American Type Culture Collection (ATCC). Human malignant blood tumor cells, HL-60, U266, OPM2, OCI-My5, RPMI-8226, NCI-H929, Jurkat, LP-1, CCRF-CEM, K562, and U937, were provided by Dr. Xinliang Mao, Soochow University. MDA-MB-231, Patu8988, HepG2, A2780, LOVO, H1299, A549, HCT-8, SW480, 3AO, MGC-803, and MCF-7 were cultured in Dulbecco’s Modified Eagle Medium (DMEM, Gibco); U266, RPMI-8226, OPM2, OCI-My5, NCI-H929 and LP-1 were cultured in Iscove’s Modified Dulbecco’s Medium (IMDM. Gibco). The rest of cell lines were cultured in RPMI-1640 medium (Gibco). All mediums were supplemented with 10% fetal bovine serum (FBS, Gibco), 100 μg/mL penicillin and streptomycin, and all cells were maintained in a cell incubator with 5% CO2 at 37℃.
(§4) All cells were incubated in 96-well culture plates with 100 μL medium in each well. The concentration of solid cells (MDA-MB-231, MCF-7, Patu8988, HepG2, A2780, 3AO, LOVO, HCT-8, SW480, A549, H1299, and MGC-803) was 3,000/well and the concentration of suspension cells (HL-60, U266, OPM2, OCI-My5, RPMI-8226, NCI-H929, Jurkat, LP-1, CCRF-CEM, K562, and U937) was 7,500/well. […] The viability of the cancer cells was evaluated by Thiazolyl Blue (MTT) assay. 10 μL of 5 mg/mL MTT was added to each well and the plate was incubated at 37℃ for 4 h. Then, 100 μL MTT buffer was added to each well. After incubating the plate overnight, the absorbance of each well was measured at 550 nm by a microplate reader. All data were normalized to control groups (5 μL DMSO) and converted into the percent of living cells. All results were represented as the mean and standard deviation (SD) of the three independent measurements.

RPMI-8226 cells [4] = assay: MTT cell proliferation assay; type: cell-based, human; conditions: 72 h, Fig. 3C, compared with IPI-145
Text: as §3, §4

U937 cells = assay: MTT cell proliferation assay; type: cell-based, human; conditions: 72 h, Fig. 3C, compared with IPI-145
Text: as §3, §4

PI3Kβ = PI3Kβ (Homo sapiens, UniProt P42338); assay: ADP-Glo cell-free PI3K kinase activity assay
Experimental: as §6

[5] = test system: AKT phosphorylation (Thr308, Ser473) in RPMI-8226 cells; assay: Western Blot of PI3K/AKT signaling; type: cell-based, human
Experimental: as §1, §2

[6] = test system: AKT phosphorylation (Thr308, Ser473) in K562 cells; assay: Western Blot of PI3K/AKT signaling; type: cell-based, human
Experimental: as §1, §2

PI3Kα = PI3Kα (Homo sapiens, UniProt P42336); assay: ADP-Glo cell-free PI3K kinase activity assay
Experimental: as §6

K562 cells [7] = assay: Annexin V-FITC/PI flow cytometry apoptosis assay; type: cell-based, human; conditions: 24 h
Experimental: (§5) After being treated with JN-KI3 for 24 h, K562 and RPMI-8226 were stained with Annexin V-FITC/PI detection kit (Beyotime) and the apoptosis of the cells were detected using a flow cytometer (FACSCalibur, BD) following the instructions.

RPMI-8226 cells [8] = assay: Annexin V-FITC/PI flow cytometry apoptosis assay; type: cell-based, human; conditions: RPMI-8226, 10 μM, 24 h
Experimental: as §5

[9] = test system: hematologic tumor cell lines (HL-60, Jurkat, CCRF-CEM, K562, OPM2, OCI-My5, LP-1, RPMI-8226, U937); assay: MTT cell proliferation assay, hematologic tumor cell lines, gradient of concentrations; type: cell-based, human; conditions: Fig. 3D
Text: as §3
All cells were incubated in 96-well culture plates with 100 μL medium in each well. […] The viability of the cancer cells was evaluated by Thiazolyl Blue (MTT) assay. […] After incubating the plate overnight, the absorbance of each well was measured at 550 nm by a microplate reader. […]

Sequence of PI3Kδ (O00329 whole entry): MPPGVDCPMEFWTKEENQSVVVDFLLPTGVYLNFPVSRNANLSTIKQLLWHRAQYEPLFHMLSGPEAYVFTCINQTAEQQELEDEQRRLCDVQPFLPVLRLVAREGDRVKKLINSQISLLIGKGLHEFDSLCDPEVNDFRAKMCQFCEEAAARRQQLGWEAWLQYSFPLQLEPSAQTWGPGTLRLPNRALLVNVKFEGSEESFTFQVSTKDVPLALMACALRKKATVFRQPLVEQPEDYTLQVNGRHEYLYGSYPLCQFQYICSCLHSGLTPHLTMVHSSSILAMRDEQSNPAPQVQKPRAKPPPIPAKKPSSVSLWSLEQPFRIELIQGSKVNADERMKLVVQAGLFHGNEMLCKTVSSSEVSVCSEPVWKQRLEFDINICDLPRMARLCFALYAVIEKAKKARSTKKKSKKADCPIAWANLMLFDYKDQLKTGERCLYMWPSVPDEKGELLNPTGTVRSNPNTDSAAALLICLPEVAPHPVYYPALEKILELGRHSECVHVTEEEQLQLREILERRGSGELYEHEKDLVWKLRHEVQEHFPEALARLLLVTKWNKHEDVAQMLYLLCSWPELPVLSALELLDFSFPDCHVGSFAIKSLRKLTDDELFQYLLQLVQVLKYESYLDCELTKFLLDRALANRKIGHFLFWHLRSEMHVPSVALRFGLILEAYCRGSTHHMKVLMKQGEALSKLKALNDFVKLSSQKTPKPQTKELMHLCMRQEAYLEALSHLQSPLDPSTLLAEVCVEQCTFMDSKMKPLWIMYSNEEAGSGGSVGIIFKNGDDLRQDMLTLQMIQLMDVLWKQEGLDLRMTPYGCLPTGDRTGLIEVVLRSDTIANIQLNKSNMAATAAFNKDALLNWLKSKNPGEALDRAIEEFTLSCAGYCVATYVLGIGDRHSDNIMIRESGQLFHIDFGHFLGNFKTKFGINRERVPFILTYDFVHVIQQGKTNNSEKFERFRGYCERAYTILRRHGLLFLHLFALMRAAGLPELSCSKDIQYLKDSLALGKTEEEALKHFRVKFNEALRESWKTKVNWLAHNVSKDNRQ
Sequence of PI3Kδ (P27986 whole entry partner): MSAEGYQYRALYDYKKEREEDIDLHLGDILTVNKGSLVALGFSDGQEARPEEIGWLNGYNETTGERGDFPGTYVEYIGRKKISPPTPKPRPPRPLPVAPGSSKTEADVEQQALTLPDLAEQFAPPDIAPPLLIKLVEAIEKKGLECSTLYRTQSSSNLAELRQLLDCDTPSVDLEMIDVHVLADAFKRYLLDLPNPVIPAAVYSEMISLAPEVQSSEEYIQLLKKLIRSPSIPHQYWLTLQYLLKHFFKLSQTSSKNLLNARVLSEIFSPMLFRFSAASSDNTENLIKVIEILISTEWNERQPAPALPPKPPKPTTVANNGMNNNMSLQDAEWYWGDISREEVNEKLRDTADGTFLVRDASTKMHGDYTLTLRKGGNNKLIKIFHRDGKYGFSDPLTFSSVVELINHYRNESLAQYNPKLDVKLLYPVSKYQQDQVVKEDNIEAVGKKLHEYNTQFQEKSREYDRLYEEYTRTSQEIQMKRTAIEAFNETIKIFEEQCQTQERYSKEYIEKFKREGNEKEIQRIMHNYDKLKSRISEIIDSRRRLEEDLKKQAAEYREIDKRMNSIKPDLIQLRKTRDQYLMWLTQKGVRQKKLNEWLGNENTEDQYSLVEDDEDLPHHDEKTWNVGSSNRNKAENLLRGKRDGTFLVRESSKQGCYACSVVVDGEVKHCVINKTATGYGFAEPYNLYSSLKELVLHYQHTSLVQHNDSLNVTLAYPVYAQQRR
Sequence of PI3Kα (P42336 whole entry): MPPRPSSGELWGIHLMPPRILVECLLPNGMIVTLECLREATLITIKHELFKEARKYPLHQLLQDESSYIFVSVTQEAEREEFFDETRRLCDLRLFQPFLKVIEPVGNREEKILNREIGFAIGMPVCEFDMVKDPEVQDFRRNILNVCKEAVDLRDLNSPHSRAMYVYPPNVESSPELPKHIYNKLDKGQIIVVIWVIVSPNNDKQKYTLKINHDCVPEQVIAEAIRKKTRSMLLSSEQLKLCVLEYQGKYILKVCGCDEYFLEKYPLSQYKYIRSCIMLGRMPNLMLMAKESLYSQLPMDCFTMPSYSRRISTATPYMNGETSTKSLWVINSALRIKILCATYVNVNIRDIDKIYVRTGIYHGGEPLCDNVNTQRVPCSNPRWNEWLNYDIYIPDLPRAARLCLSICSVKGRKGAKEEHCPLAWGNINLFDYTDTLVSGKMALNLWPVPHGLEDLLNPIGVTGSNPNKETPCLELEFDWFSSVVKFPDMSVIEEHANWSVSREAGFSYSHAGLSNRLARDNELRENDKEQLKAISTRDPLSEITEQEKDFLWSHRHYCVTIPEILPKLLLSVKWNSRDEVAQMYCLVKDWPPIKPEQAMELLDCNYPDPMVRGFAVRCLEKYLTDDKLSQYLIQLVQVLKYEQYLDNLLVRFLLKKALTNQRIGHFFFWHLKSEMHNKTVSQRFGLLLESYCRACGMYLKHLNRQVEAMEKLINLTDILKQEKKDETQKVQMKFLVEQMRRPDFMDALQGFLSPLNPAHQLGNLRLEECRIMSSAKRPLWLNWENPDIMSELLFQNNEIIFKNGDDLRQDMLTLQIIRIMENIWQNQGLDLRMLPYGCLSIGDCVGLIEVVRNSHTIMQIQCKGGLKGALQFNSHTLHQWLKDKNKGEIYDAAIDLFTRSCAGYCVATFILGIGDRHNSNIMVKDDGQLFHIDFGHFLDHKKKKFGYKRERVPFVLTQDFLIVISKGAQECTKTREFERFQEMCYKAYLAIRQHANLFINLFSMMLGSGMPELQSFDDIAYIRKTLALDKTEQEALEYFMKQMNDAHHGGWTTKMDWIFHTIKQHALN
Sequence of PI3Kα (P27986 whole entry partner): as the sequence (P27986 whole entry partner) above
Sequence of PI3Kβ (P42338 whole entry): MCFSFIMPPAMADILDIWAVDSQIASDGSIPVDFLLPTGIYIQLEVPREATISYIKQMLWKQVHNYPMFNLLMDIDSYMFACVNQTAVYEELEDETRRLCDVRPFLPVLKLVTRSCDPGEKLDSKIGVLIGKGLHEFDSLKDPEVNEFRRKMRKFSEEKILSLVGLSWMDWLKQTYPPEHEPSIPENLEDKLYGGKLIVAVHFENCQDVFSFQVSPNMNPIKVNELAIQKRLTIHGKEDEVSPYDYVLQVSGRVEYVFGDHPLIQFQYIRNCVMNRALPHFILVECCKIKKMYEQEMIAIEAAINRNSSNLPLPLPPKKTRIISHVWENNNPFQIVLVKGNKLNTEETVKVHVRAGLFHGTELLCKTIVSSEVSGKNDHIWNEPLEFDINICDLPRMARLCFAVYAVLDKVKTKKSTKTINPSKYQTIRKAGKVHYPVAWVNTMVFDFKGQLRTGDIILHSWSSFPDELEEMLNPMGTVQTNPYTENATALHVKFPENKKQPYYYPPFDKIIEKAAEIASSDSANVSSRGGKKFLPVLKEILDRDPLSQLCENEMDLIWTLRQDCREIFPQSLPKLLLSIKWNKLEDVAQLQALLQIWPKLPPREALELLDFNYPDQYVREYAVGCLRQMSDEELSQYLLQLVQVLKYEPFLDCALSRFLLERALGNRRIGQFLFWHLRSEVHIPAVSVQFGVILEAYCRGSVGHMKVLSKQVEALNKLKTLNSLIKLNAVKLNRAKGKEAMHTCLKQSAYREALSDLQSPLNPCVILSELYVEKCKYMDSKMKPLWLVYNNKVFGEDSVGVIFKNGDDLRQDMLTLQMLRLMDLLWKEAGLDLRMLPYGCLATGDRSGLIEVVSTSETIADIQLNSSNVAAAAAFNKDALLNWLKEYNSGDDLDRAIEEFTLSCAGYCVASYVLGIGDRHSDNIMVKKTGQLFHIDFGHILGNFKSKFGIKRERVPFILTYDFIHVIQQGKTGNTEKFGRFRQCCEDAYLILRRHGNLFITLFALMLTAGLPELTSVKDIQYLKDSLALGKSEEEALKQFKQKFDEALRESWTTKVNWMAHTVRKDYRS
Sequence of PI3Kβ (P27986 whole entry partner): as the sequence (P27986 whole entry partner) above
Sequence of PI3Kγ (P48736 whole entry): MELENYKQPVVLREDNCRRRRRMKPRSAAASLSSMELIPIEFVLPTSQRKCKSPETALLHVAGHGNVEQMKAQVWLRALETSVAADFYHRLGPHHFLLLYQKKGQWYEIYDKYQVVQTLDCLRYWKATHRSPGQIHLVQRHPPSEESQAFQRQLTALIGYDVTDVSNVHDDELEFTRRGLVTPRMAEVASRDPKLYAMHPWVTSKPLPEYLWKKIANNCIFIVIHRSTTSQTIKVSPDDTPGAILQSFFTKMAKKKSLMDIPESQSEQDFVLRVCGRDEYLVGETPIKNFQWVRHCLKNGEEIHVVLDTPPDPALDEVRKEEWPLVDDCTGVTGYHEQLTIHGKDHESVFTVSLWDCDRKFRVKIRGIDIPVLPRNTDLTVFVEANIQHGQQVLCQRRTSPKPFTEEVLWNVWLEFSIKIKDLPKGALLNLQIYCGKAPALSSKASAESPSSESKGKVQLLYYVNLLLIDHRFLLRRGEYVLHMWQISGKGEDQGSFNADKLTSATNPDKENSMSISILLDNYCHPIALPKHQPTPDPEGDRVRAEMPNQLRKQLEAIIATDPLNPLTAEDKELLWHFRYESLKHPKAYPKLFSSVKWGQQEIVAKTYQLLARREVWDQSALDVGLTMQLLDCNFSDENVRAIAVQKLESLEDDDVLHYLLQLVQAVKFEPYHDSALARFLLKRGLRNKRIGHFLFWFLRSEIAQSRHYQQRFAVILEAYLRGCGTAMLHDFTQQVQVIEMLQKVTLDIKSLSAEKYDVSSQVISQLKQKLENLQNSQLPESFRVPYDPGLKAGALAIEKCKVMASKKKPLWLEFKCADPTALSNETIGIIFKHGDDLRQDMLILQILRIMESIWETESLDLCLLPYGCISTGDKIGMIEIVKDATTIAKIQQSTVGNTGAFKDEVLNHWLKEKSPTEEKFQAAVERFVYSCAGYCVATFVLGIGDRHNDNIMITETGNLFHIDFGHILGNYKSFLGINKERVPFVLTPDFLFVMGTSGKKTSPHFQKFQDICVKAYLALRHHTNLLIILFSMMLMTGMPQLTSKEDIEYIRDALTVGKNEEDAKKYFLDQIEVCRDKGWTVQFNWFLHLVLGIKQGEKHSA

C[C@H](Nc1ncnc2nc[nH]c12)c1cc2cccc(Cl)c2c(=O)n1-c1ccccc1 [IPI-145]
PI3Kγ inhibitory percent (PI3Kγ): strongest inhibitory activity

CC(=O)c1c(C)n(-c2ccc(C)cc2)c2ccc(OCC(O)CNCc3ccc(Cl)cc3)cc12 (centres unmarked) [JN-KI3]
IC50 (PI3Kδ; read-out: Cell-free inhibitory IC50 PI3Kδ, ATP 25 μM, average of triple tests): > 20 µM
IC50 (PI3Kδ; read-out: IC50 PI3Kδ, Table 4): > 20 µM
cleavage level of Caspase-3 and PARP, time course ([1]; K562, 20 μM, after 6 h): significantly increased
cleavage levels of PARP and caspase-3 ([1]; K562, increasing concentrations, 24 h): obviously increased
cleavage level of Caspase-3 and PARP, time course ([2]; RPMI-8226, 20 μM, after 6 h): significantly increased
cleavage levels of PARP and caspase-3 ([2]; RPMI-8226, increasing concentrations, 24 h): obviously increased
anti-proliferative activity, K562 (K562 cells [3]; 72 h, MTT, Fig. 3B/3C): stronger than IPI-145
sensitivity of K562 proliferation (K562 cells [3]; gradient of concentrations, low concentration, Fig. 3D): significant sensitivity
anti-proliferative activity, RPMI-8226 (RPMI-8226 cells [4]): stronger than IPI-145
anti-proliferative activity, U937 (U937 cells): stronger than IPI-145
IC50 (PI3Kβ; read-out: Cell-free inhibitory IC50 PI3Kβ, ATP 25 μM, average of triple tests): > 20 µM
IC50 (PI3Kβ; read-out: IC50 PI3Kβ, Table 4): > 20 µM
phosphorylation level of AKT at both sites, time course ([5]; RPMI-8226, 20 μM, 0 to 24 h): significantly inhibited
t-AKT, time course ([5]; RPMI-8226, 20 μM, 0 to 24 h): not markedly affected
AKT phosphorylation at Thr308 and Ser473 ([5]; RPMI-8226, increasing concentration (2.5-20 μM), 24 h, inhibition even at 2.5 μM): markedly decreased
expression of total AKT (t-AKT) ([5]; RPMI-8226, increasing concentration, 24 h): not affected
phosphorylation level of AKT at both sites, time course ([6]; K562, 20 μM, 0 to 24 h): significantly inhibited
t-AKT, time course ([6]; K562, 20 μM, 0 to 24 h): not markedly affected
AKT phosphorylation at Thr308 and Ser473 ([6]; K562, increasing concentration (2.5-20 μM), 24 h, inhibition even at 2.5 μM): markedly decreased
expression of total AKT (t-AKT) ([6]; K562, increasing concentration, 24 h): not affected
IC50 (PI3Kα; read-out: Cell-free inhibitory IC50 PI3Kα, ATP 25 μM, average of triple tests): > 20 µM
IC50 (PI3Kα; read-out: IC50 PI3Kα, Table 4): > 20 µM
cells occurring apoptosis (K562 cells [7]; K562, 2.5 μM): 41.2%
cells occurring apoptosis (K562 cells [7]; K562, 5 μM): 47.5%
cells occurring apoptosis (K562 cells [7]; K562, 10 μM): 65.7%
cells occurring apoptosis (RPMI-8226 cells [8]): about 20.43%
proliferation of hematologic tumor cell lines [9]: decreased in a concentration-dependent manner

O=c1cc(N2CCOCC2)oc2c(-c3ccccc3)cccc12 [LY294002, reference compound]
IC50 (PI3Kδ): 0.78 µM
